# Reference: US20240050950A1, “GRADIENT-BASED MICROFLUIDIC CIRCUIT, DEVICE, AND METHOD FOR PERFORMING AN ASSAY” (priority 2020, published 2024)
# Counter-ions that a name gives are not always drawn. Like-named read-outs stand apart in the source and are kept apart here. Numbered stars: 1 amine (or outer) side, 2 acyl side, 3 side chain; on linkers, the order of the positions; unused ones are H or OH. Bridge positions count the residues as written; N and C are the ends. Square brackets hold non-standard residues; d marks the D form. Peptide text beside a SMILES is read from it. X1 = CC(C)CCCCCCCCC[C@H](CC(=O)[*:1])O[*:2]
# Legend:
# E. coli 541-15 [1] = assay type: cell-based
# Protocol: To perform a small-molecule-based biological assay in the MVM^2 platform, four main steps to load the reagents are followed. Step-i involves loading a suspension of the biological species (often with a fluorescent chemical indicator) into the MVM^2 platform so that it is uniformly distributed throughout (see FIG. 6C(i) and FIGS. 11A-D for more details; this step mainly takes ˜3-5 min). In step-ii, small-molecule solutions at C0, 0.1 C0, and 0.01 C0 concentrations are loaded into the high, medium, and low positive main-channels, respectively, which diffuse into the corresponding microchambers through the connected side-channels (see FIG. 6C(ii) and FIGS. 12A-D for more details; this step mainly takes as equal as the small-molecule loading time).
# Resazurin (5 wt %) was also added to the bacterial suspension to allow monitoring of the bacterial cell metabolism through an irreversible resazurin-resorufin enzymatic reduction reaction (i.e., with increasing bacterial growth, the higher resazurin reduction results in greater fluorescent intensity).
# To further confirm these findings based on the bacterial cell metabolism obtained from resazurin reduction, the red fluorescent intensities were correlated with the green fluorescence directly associated with the GFP-labeled bacterial growth in the corresponding microchambers (FIG. 9A and FIG. 9B). […] Moreover, the gold standard broth microdilution technique (measuring the bacterial cell density—OD600—vs. the incubation time) was used to validate the MVM^2 microfluidic device functionality (FIG. 9E).
# Similarly, bacterial cell metabolism and growth using the resazurin reduction assay was probed and changes in the number of GFP-labeled bacteria during the assay was monitored, as shown in FIGS. 29A-B and FIGS. 30A-B, respectively.
# E. coli 541-15 [2] = assay: Gold standard broth microdilution test (OD600 growth curves); assay type: cell-based
# Protocol: Bacteria culture medium, strains, growth, and broth microdilution test. Non-selective Mueller-Hinton (“MET”) culture medium was used for all bacterial culture. In detail, a colony of bacteria pre-cultured on an LB agar plate (Corning, NY) was taken from a freshly streaked plate and suspended into 3 mL of MEI broth, and cultured at 37° C. overnight (˜12 h). The concentration of bacterial suspension was adjusted using a UV-Vis spectrophotometer (NanoDrop, Thermo-Fisher; Wilmington, DE). To do this, the overnight culture medium was diluted by 10-fold serial dilutions in non-selective MEI culture medium to find the appropriate final concentration (1×10^6 CFU/mL) for the antimicrobial susceptibility testing assay.
# The gold standard broth microdilution test was performed by preparing the antibiotic solutions at their final concentrations from a stock solution of each examined antibiotic. A fresh 200 μL volume of each antibiotic solution (prepared in MEI culture medium) was pipetted into each microwell of a 96 MicroWell plate. […] Standardized growth curve analysis was performed using a Bioscreen C automated plate reader (Growth Curves USA, NJ) by measuring OD600. […]
# [3] = cited from earlier work
# E. coli LF82 = assay: MVM2 antimicrobial R/S profile, Crohn's disease clinical isolate; assay type: cell-based; conditions: MVM2 platform, 0.1-100 μg/mL, FIG. 9F
# E. coli = assay: MVM2 antimicrobial R/S profile, bovine mastitis E. coli isolate; assay type: cell-based; conditions: MVM2 platform, 0.1-100 μg/mL, FIG. 32
# Excerpt: Bovine with mastitis disease was also used to test the MVM^2 platform for deciphering their antimicrobial resistant/susceptibility profile. These antibiotics were chosen to investigate the most common and important antibiotics' mechanisms of action, including the disruption of bacterial cell wall and membrane synthesis, binding to RNA/DNA and interrupting nucleic acid replication, and inhibition of protein synthesis by binding to ribosome. FIG. 32 contains the following information: (i) the type of bacteria and tested antibiotic can be found at the left and right sides, respectively; (ii) each row includes 37 squares, as labeled at the top and have been categorized in 4 different categories—first square representing the microchamber as negative control (labeled with “N”), and every next twelve squares as respectively representing low, medium, and high positive ranges of antibiotic concentrations; (iii) the low, medium, and high ranges are included the concentration ranges of 0.1-1, 1-10, and 10-100 μg/mL; (iv) there are three types of squares: dark red, dark pink or light pink. […] The dark pink squares also show the microchambers which antimicrobial susceptibility was monitored at different trials. […]
# [4] = test system: E. coli, S. aureus, S. uberis, and K. pneumoniae; assay: MVM2 antimicrobial R/S profile, bovine mastitis clinical isolates; assay type: cell-based; conditions: MVM2 platform, FIG. 32
# Excerpt: Bovine with mastitis disease was also used to test the MVM^2 platform for deciphering their antimicrobial resistant/susceptibility profile. These antibiotics were chosen to investigate the most common and important antibiotics' mechanisms of action, including the disruption of bacterial cell wall and membrane synthesis, binding to RNA/DNA and interrupting nucleic acid replication, and inhibition of protein synthesis by binding to ribosome. FIG. 32 contains the following information: (i) the type of bacteria and tested antibiotic can be found at the left and right sides, respectively; (ii) each row includes 37 squares, as labeled at the top and have been categorized in 4 different categories—first square representing the microchamber as negative control (labeled with “N”), and every next twelve squares as respectively representing low, medium, and high positive ranges of antibiotic concentrations; (iii) the low, medium, and high ranges are included the concentration ranges of 0.1-1, 1-10, and 10-100 μg/mL; (iv) there are three types of squares: dark red, dark pink or light pink. If bacteria is susceptible to a specific antibiotic (e.g., E. coli/cefuroxime pair, see FIG. 32), below MIC (shown by dark pink color), bacteria can survive and grow causing more resazurin reduction (shown by dark red). At concentrations greater than the MIC, the bacterial growth stopped as shown by light pink color. The dark pink squares also show the microchambers which antimicrobial susceptibility was monitored at different trials. […].
# [5] = test system: E. coli LF82, E. faecalis 44, and K. pneumoniae 578; assay: MVM2 antimicrobial R/S profile, isolates from ileal mucosa of human patients with Crohn's disease; assay type: cell-based; conditions: MVM2 platform, FIG. 9F
# [6] = Table 1, antimicrobial agents/drugs
# [7] = Table 3, antifungal drugs and other molecules
molecule,measurement,setting,value
CC1(C)S[C@@H]2[C@H](NC(=O)[C@H](N)c3ccccc3)C(=O)N2[C@H]1C(=O)O [D-(−)-α-Aminobenzylpenicillin],susceptibility/resistance outcome,"E. coli 541-15 [1]; MVM2 platform, 0.1-100 μg/mL, 4 h",resistance
same,susceptibility/resistance outcome,E. coli 541-15 [2],resistance
same,Molar volume,[3]; [6],239.3 ± 5.0 cm^3
same,susceptibility/resistance outcome,E. coli LF82,resistance
CCC[C@@H]1C[C@@H](C(=O)N[C@@H]([C@H]2O[C@H](SC)[C@H](O)[C@@H](O)[C@H]2O)[C@@H](C)O)N(C)C1 [Lincomycin],susceptibility/resistance outcome,E. coli,resistance
same,Molar volume,[3]; [6],313.2 ± 5.0 cm^3
same,effectiveness among tested antibiotics,[4],not effective
CCn1cc(C(=O)O)c(=O)c2ccc(C)nc21 [Nalidixic acid],effectiveness among tested antibiotics,[4],most effective
"COC1=C(N)C(=O)c2nc(-c3nc(C(=O)O)c(C)c(-c4ccc(OC)c(OC)c4O)c3N)ccc2C1=O [Streptonigrin (Bruneomycin, Nigrin), Streptonigrin]",Molar volume,[3]; [6],322.2 ± 5.0 cm^3
CC(C)CCCCCCCCC[C@@H]1CC(=O)N[C@@H](CCC(=O)O)C(=O)N[C@@H](CC(C)C)C(=O)N[C@H](CC(C)C)C(=O)N[C@@H](C(C)C)C(=O)N[C@@H](CC(=O)O)C(=O)N[C@H](CC(C)C)C(=O)N[C@@H](CC(C)C)C(=O)O1 [Surfactin] (EL[dL]VD[dL]L; linker N-C via X1),Molar volume,[3]; [7],998.6 ± 3.0 cm^3
"Nc1nc2nc[nH]c2c(=S)[nH]1 [Tabloid (Thioguanine), Thioguanine]",Molar volume,"[3]; Table 2, anticancer drugs",96.4 ± 3.0 cm^3
"CO[C@H]1C[C@@H]2CC[C@@H](C)[C@@](O)(O2)C(=O)C(=O)N2CCCC[C@H]2C(=O)O[C@H]([C@H](C)C[C@@H]2CC[C@@H](OC(=O)C(C)(CO)CO)[C@H](OC)C2)CC(=O)[C@H](C)/C=C(\C)[C@@H](O)[C@@H](OC)C(=O)[C@H](C)C[C@H](C)/C=C/C=C/C=C/1C [Temsirolimus (Torisel), Temsirolimus]",Molar volume,"[3]; Table 2, anticancer drugs",853.1 ± 5.0 cm^3
CN(C/C=C/C#CC(C)(C)C)Cc1cccc2ccccc12 [Terbinafine],Molar volume,[3]; [7],289.1 cm^3
CC(C)N1CCN(c2ccc(OCC3COC(Cn4cncn4)(c4ccc(Cl)cc4Cl)O3)cc2)CC1 (centres unmarked) [Terconazole],Molar volume,[3]; [7],391.5 ± 7.0 cm^3
O=C1CCC(N2C(=O)c3ccccc3C2=O)C(=O)N1 (centres unmarked) [Thalidomide],Molar volume,"[3]; Table 2, anticancer drugs",171.7 ± 3.0 cm^3
"Cc1ccc(C(C)C)c(O)c1 [Thymol (5-Methyl-2-isopropylphenol), 5-Methyl-2-isopropylphenol]",Molar volume,[3]; [7],150.2 cm^3
Clc1ccc(C(Cn2ccnc2)OCc2ccsc2Cl)c(Cl)c1 (centres unmarked) [Tioconazole],Molar volume,[3]; [7],269.0 ± 7.0 cm^3
Cc1cccc(N(C)C(=S)Oc2ccc3ccccc3c2)c1 [Tolnaftate],Molar volume,[3]; [7],251.1 ± 3.0 cm^3
"COc1cc2c(cc1O)CCN[C@]21CS[C@@H]2c3c(OC(C)=O)c(C)c4c(c3[C@H](COC1=O)N1[C@@H]2[C@H]2c3c(cc(C)c(OC)c3O)C[C@@H]([C@@H]1O)N2C)OCO4 [Trabectedin (Yondelis), Trabectedin]",Molar volume,"[3]; Table 2, anticancer drugs",489.2 ± 5.0 cm^3
Nc1ncnc2c1ccn2[C@@H]1O[C@H](CO)[C@@H](O)[C@H]1O [Tubercidin],Molar volume,[3]; [7],139.5 ± 7.0 cm^3
"CC(=O)OC[C@H]1O[C@@H](n2ccc(=O)[nH]c2=O)[C@H](OC(C)=O)[C@@H]1OC(C)=O [Uridine Triacetate (Vistogard), Uridine Triacetate]",Molar volume,"[3]; Table 2, anticancer drugs",257.5 ± 5.0 cm^3
CCCCC(=O)OCC(=O)[C@]1(O)Cc2c(O)c3c(c(O)c2[C@@H](O[C@H]2C[C@H](NC(=O)C(F)(F)F)[C@H](O)[C@H](C)O2)C1)C(=O)c1c(OC)cccc1C3=O [Valrubicin],Molar volume,"[3]; Table 2, anticancer drugs",469.8 ± 5.0 cm^3
CC[C@]1(O)C[C@@H]2CN(CCc3c([nH]c4ccccc34)[C@@](C(=O)OC)(c3cc4c(cc3OC)N(C)[C@H]3[C@@](O)(C(=O)OC)[C@H](OC(C)=O)[C@]5(CC)C=CCN6CC[C@]43[C@@H]65)C2)C1 [Vinblastine Sulfate],Molar volume,"[3]; Table 2, anticancer drugs",590.0 ± 5.0 cm^3
"O=C(CCCCCCC(=O)Nc1ccccc1)NO [Vorinostat (Zolinza), Vorinostat]",Molar volume,"[3]; Table 2, anticancer drugs",224.9 ± 3.0 cm^3
"Cc1nccn1CC1CCc2c(c3ccccc3n2C)C1=O (centres unmarked) [Zofran (Ondansetron Hydrochloride), Ondansetron Hydrochloride]",Molar volume,"[3]; Table 2, anticancer drugs",230.1 ± 7.0 cm^3
O=C(O)CN(CC(=O)O)Cc1cc2c(cc1O)Oc1cc(O)c(CN(CC(=O)O)CC(=O)O)cc1C21OC(=O)c2ccccc21 [calcein],Molar volume,[3]; fluorescent dyes,356±5 cm^3/mole
CO/N=C(\C(=O)N[C@@H]1C(=O)N2C(C(=O)O)=C(COC(N)=O)CS[C@H]12)c1ccco1 [cefuroxime],susceptibility/resistance outcome,E. coli,susceptible
same,effectiveness among tested antibiotics,[4],most effective
O=c1ccc2[n+]([O-])c3ccc(O)cc3oc-2c1 [resazurin],Molar volume,[3]; fluorescent dyes,145±7 cm^3/mole
CC1(C)S[C@@H]2[C@H](NC(=O)C(C(=O)O)c3ccccc3)C(=O)N2[C@H]1C(=O)O (stereo partly drawn) [α-Carboxybenzylpenicillin],Molar volume,[3]; [6],246.1 ± 5.0 cm^3
Aculeacin A,Molar volume,[3]; [6],754.1 ± 5.0 cm^3
Alemtuzumab,Molar volume,"[3]; Table 2, anticancer drugs",165.7 ± 7.0 cm^3
Antimycin,Molar volume,[3]; [7],431.0 ± 5.0 cm^3
Bleomycin,Molar volume,[3]; [7],887.0 ± 5.0 cm^3
Cinnamycin,Molar volume,[3]; [7],1281.0 ± 7.0 cm^3
Colistin,Molar volume,[3]; [6],916.9 ± 5.0 cm^3
Epoetin Alfa,Molar volume,"[3]; Table 2, anticancer drugs",665.6 ± 5.0 cm^3
Fengycin [Fengycin (Plipastatin)],Molar volume,[3]; [7],1105.9 ± 5.0 cm^3
Gentamicin,effectiveness among tested antibiotics,[5],most effective
same,susceptibility/resistance outcome,E. coli 541-15 [1],susceptible
same,MIC,"E. coli 541-15 [1]; MVM2 platform, 4 h at 37° C., n=5",2.82 ± 0.68 µg/mL
same,MIC,E. coli 541-15 [2]; n=5,3 ± 2 µg/mL
same,susceptibility/resistance outcome,E. coli LF82,susceptible
same,effectiveness among tested antibiotics,[4],most effective
Gilteritinib Fumarate [Xospata (Gilteritinib Fumarate)],Molar volume,"[3]; Table 2, anticancer drugs",444.9 ± 3.0 cm^3
Ikarugamycin,Molar volume,[3]; [6],390.4 ± 5.0 cm^3
Ivermectin Bla,Molar volume,[3]; [6],708.3 ± 5.0 cm^3
Kirromycin [Kirromycin (mocimycin)],Molar volume,[3]; [6],622.6 ± 3.0 cm^3
"Lactoferricin B (SITCVRRAFALECIRAIAEKKADAV; Lactoferricin-B; UniProt P24627 52-76, looked up, fragment) [Lactoferricin B (metallibure)]",Molar volume,[3]; [6],184.7 ± 3.0 cm^3
Lysobactin,Molar volume,[3]; [6],895.9 ± 7.0 cm^3
Magainin I,Molar volume,[3]; [6],1900.4 ± 3.0 cm^3
Mithramycin A [Mithramycin A (Plicamycin)],Molar volume,[3]; [6],728.3 ± 5.0 cm^3
Neomycin,Molar volume,[3]; [6],380.3 ± 5.0 cm^3
Phleomycin [Phleomycin (UNII:BN3E7WJN9X)],Molar volume,[3]; [6],724.4 ± 7.0 cm^3
Polymyxin B,Molar volume,[3]; [6],941.8 ± 5.0 cm^3
Reveromycin A [Reveromycin A (MFCD00912537)],Molar volume,[3]; [6],542.2 ± 5.0 cm^3
gramicidin s,Molar volume,[3]; [6],919.5 ± 5.0 cm^3
"Neocarzinostatin (protein, UniProt P0A3R9 35-147, looked up, enediyne chromophore) Neocarzinostatin: AAPTATVTPSSGLSDGTVVKVAGAGLQAGTAYDVGQCAWVDTGVLACNPADFSSVTADANGSASTSLTVRRSFEGFLFDGTRWGTVDCTTAACQVGLSDAAGNGPEGVAISFN",Molar volume,[3]; [6],434.9 ± 5.0 cm^3
"Pegfilgrastim (protein, UniProt P09919 31-207, looked up, N-terminal methionine; PEG) Granulocyte …: TPLGPASSLPQSFLLKCLEQVRKIQGDGAALQEKLVSECATYKLCHPEELVLLGHSLGIPWAPLSSCPSQALQLAGCLSQLHSGLFLYQGLLQALEGISPELGPTLDTLQLDVADFATTIWQQMEELGMAPALQPTQGAMPAFASAFQRRAGGVLVASHLQSFLEVSYRVLRHLAQP",Molar volume,"[3]; Table 2, anticancer drugs",252.4 ± 3.0 cm^3
